Results reported in article PMC5940383, “SMAR1 inhibits Wnt/β-catenin signaling and prevents colorectal cancer progression” (Oncotarget, 2018).
Where a SMILES comes first, the peptide text is derived from it. Where no end group is shown, it is not given here. The star is where a group is joined. Cbz = O=C(OCc1ccccc1)*

Columns and labels:
[1] = system: SMAR1 expression in HCT116 cells and an array of CRC cell lines; experiment: Western blot / confocal: SMAR1 protein expression after peptide treatment; type: cell-based; settings: Wnt3a CM or rh Wnt3a ligand (200 ng/mL), LiCl 30 mM for 6 hrs, MG132 10 μM with or without Wnt3a CM
Experimental: (§1) HCT116, SW480, SW620, HCT15 and HT29 cells (obtained from NCCS, Pune) were cultured in DMEM medium with 10% Fetal Bovine Serum (Gibco) and 100 Units of Penicillin Streptomycin antibiotics (Gibco). HCT116 stable cells were generated using GFP-SMAR1, GFP-control and GFP-sh-SMAR1 plasmids. si-HDAC5 plasmid was purchased from Santa Cruz Biotechnology. Conditioned medium were prepared using L cells and L-Wnt3a cells (kind gift from Jomon Joseph, NCCS Pune). After culturing for 7 days supernatant was collected and filtered through 0.22 micron syringe filter. Cells were treated with peptides (provided by Amrita Therapeutics) for 48 hours. Lipofectamine 2000 (Invitrogen) was used for transfection purposes.
(§2) Proteins were extracted using lysis buffer (50 mM Tris-Cl pH 7.5, 5 mM EDTA, 0.5% NP40, 50 mM NaF, 1 mM DTT, 0.2 mM sodium orthovanadate, 0.5 mM PMSF, 150 mM NaCl and 1X Protease Inhibitor cocktail). 40 μg proteins were transferred to PVDF membranes by Western blotting technique and blots were blocked with 5% BSA and incubated in primary antibodies. Blots were then incubated with HRP conjugated secondary antibodies and developed in X-ray films. For IP, proteins extracted were pre-cleared with Protein A/G beads (Invitrogen) and immunoprecipitated overnight with desired antibodies. Protein A/G beads were used to pull-down the protein-antibody complex and western blot was performed to check the interaction.
For confocal studies cells were fixed with 4% para-formaldehyde solution and permeabilized using 0.1% TritonX-100 solution. Cells were incubated with 1:250 dilution SMAR1 (Bethyl) antibody for 2 hours and later with 1:250 dilution Cy3 (Life Technologies) antibody for 1 hour. Coverslips containing cells were mounted using DAPI containing mounting medium (Fluoroshield with DAPI, Sigma). Human colon paraffinized tissue sections were de-paraffinized by heating in a microwave oven and later washed with xylene and alcohol. Antigen retrieval was performed and washed with PBS for further staining with 1:250 SMAR1 (Bethyl) and 1:250 β-catenin (BD Bioscience) antibodies. […]

HCT116 cells = settings: 48 h
[2] = NOD-SCID mice, 25 mg/kg body weight intra-peritoneally on alternate days for 21 days, throughout the course of treatment
[3] = system: β-catenin expression in HCT116 cells; experiment: Western blot: β-catenin expression; type: cell-based; settings: Wnt3a CM or rh Wnt3a ligand (200 ng/mL)
Experimental: as §1
as §2, with “Protein A/G beads were used to pull-down the protein-antibody complex and western blot was performed to check the interaction.” left out

[4] = system: β-catenin promoter in HCT116 cells; experiment: ChIP: occupancy of SMAR1, HDAC5 and H3K9 Ac at β-catenin promoter; type: cell-based; settings: Wnt3a CM stimulation, mean ± SD, n = 3
Experimental: HCT116 cells were transfected with GFP-control, GFP-SMAR1, GFP-sh-SMAR1 or HDAC5 siRNA plasmids. ChIP was performed using Millipore reagents supplied according to the manufacturer's protocol. The protein-DNA complex were immunoprecipitated overnight at 4° C using SMAR1 (Bethyl), HDAC5 (Cell Signaling), H3K9Ac (Cell Signaling) or IgG (Santa Cruz Biotechnology) antibodies (1 μg each). PCR was performed with the primers flanking the binding sites of SMAR1 in β-catenin promoter. […]. The PCR conditions were 95° C for 1 minute, 55° C for 1 minute and 72° C for 1 minute for 35 cycles. The PCR amplicons obtained were run in 1% Agarose (Sigma) gel and documented.

[5] = system: β-catenin promoter (pEGFP1-β-catenin) in HCT116 cells; experiment: Flow cytometry of pEGFP1-β-catenin GFP expression; type: cell-based; settings: pEGFP1-β-catenin transfected HCT116 cells, 200 ng/mL rh Wnt3a ligand; n = 3, SD
Excerpt: Genomic DNA was isolated from HCT116 cells and amplified with primers flanking binding sites of SMAR1 in β-catenin promoter. […]. The amplicon was ligated into pEGFP1 vector using T4 DNA ligase (NEB) after restriction digestion with XhoI and KpnI enzymes (NEB). Plasmids were transformed into DH5α E. coli competent cells and positive clones were identified after restriction digestion with XhoI and KpnI. The cloned β-catenin promoter was christened as pEGFP1-β-catenin.
HCT116 cells were co-transfected with FLAG-SMAR1 and pEGFP1-β-catenin plasmids or treated with rh Wnt3a ligand after transfection with pEGFP1-β-catenin. For flow cytometry analysis HCT116 cells were trypsinized using Trypsin-EDTA (Gibco) and washed thrice with PBS buffer. Cells were then passed through cell strainer (BD Falcon) and collected in flow cytometry tubes. GFP expressions were quantitated by subjecting 1 × 10^4 cells to BD FACSCalibur flow cytometry. FL1 channel was used to sort and quantify the GFP cells. Using CellQuest Pro software the histogram plots were derived and the GFP percentages were calculated. The graphs corresponding to the GFP percentage were generated using SigmaPlot software.

Molecule	SMAR1 protein level after treatment [1]	IC50 value (MTT assay) (HCT116 cells)	adverse effects [2]	further results
[Cl-].[Li+] [LiCl]	failed to downregulate SMAR1			
CC(C)C[C@@H](C=O)NC(=O)[C@H](CC(C)C)NC(=O)[C@H](CC(C)C)NC(=O)OCc1ccccc1 [MG132] (Cbz-Leu-Leu-Leu-aldehyde)	SMAR1 protein stability was observed			
ATATVNAIRGSVTPAVSQFN [AT-01C]		10 µg/mL	no observable adverse effects	
NAIRGSVTPAVSQFN [AT-01D]		9.90 µg/mL	no observable adverse effects	
Wnt3a	significant downregulation of SMAR1			β-catenin levels after Wnt3a stimulation [3]: concomitant rise in the β-catenin levels; increased H3K9 Ac occupancy in β-catenin promoter [4]: 4.72 fold; reduced occupancy of HDAC5 in β-catenin promoter [4]: 4.77 fold; reduced occupancy of SMAR1 in β-catenin promoter [4]: 4.54 fold
rh Wnt3a: recombinant human (rh) Wnt3a ligand (protein, UniProt P56704 19-352, looked up) Protein Wnt-3a: SYPIWWSLAVGPQYSSLGSQPILCASIPGLVPKQLRFCRNYVEIMPSVAEGIKIGIQECQHQFRGRRWNCTTVHDSLAIFGPVLDKATRESAFVHAIASAGVAFAVTRSCAEGTAAICGCSSRHQGSPGKGWKWGGCSEDIEFGGMVSREFADARENRPDARSAMNRHNNEAGRQAIASHMHLKCKCHGLSGSCEVKTCWWSQPDFRAIGDFLKDKYDSASEMVVEKHRESRGWVETLRPRYTYFKVPTERDLVYYEASPNFCEPNPETGSFGTRDRTCNVSSHGIDGCDLLCCGRGHNARAERRREKCRCVFHWCCYVSCQECTRVYDVHTCK				increase in GFP expression (β-catenin promoter activity) [5]: about 45%
